Results taken from patent publication US20090105218A1, “CRTH2 Receptor Ligands For Therapeutic Use” (7TM PHARMA A/S, priority 2004, published 2009).

Target: T1, human CRTH2 receptor (Homo sapiens, UniProt Q9Y5Y4, V204A)
T1 construct: expressed in transfected cells; host or cells: COS-7 (transient transfection)
T1 sequence (Q9Y5Y4 1-395 V204A): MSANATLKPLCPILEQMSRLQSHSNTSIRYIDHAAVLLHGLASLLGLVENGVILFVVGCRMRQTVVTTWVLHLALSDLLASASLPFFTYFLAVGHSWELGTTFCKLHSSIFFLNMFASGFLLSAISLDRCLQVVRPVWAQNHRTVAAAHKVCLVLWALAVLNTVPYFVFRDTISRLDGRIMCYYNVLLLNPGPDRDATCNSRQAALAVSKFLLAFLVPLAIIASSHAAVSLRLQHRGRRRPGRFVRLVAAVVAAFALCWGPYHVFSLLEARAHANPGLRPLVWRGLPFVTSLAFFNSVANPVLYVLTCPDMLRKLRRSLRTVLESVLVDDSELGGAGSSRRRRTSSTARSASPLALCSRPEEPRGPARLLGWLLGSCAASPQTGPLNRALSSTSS
Experiment: CRTH2 receptor binding assay ([3H]PGD2 competition on whole transfected cells)
Details: competition binding with 0.1 nM [3H]PGD2, whole cells expressing CRTH2, 3 h at 4° C.
Excerpt: Generation/origin of the cDNA Constructs. The coding sequence of the human CRTH2 receptor (genbank accession no NM_004778) was amplified by PCR from a human hippocampus cDNA library and inserted into the pcDNA3.1(+) expression vector (invitrogen) via 5′ HindIII and 3′ EcoRI. The sequence identity of the construct was verified by restriction endonuclease digests and sequencing in both directions on an ABI Prism (Applied Biosystems, Foster City, Calif.).
Cell Culture and Transfection. COS-7 cells were grown in Dulbecco's modified Eagle's medium (DMEM) 1885 supplemented with 10% fetal bovine serum, 100 units/ml penicillin, […] streptomycin, and kept at 37° C. in a 10% CO2 atmosphere. HEK293 cells were maintained in Minimum Essential medium (MEM) supplemented with 10% (v/v) heat inactivated fetal calf serum (HIFCS), 2 mM Glutamax™-I, 1% non essential amino acids (NEAA), 1% sodium pyruvate and 10 μg/ml gentamicin. For binding experiments, COS7 cells were transiently transfected with the CRTH2 receptor using a calcium phosphate-DNA coprecipitation method with the addition of chloroquine (as described by Holst B, Hastrup H, Raffetseder U, Martini L, Schwartz T W. J Biol. Chem. 2001 Jun. 8; 276(23):19793-9.)
Binding assay. 24 h after transfection COS-7 cells were seeded into 96 well plates at a density of 30.000 cells/well. Competition binding experiments on whole cells were then performed about 18-24 h later using 0.1 nM [^3H]PGD2 (NEN, 172 Ci/mmol) in a binding buffer consisting of HBSS (GIBCO) and 10 mM HEPES. Competing ligands were diluted in DMSO which was kept constant at 1% (v/v) of the final incubation volume. Total and nonspecific binding were determined in the absence and presence of 10 μM PGD2. Binding reactions were routinely conducted for 3 h at 4° C. and terminated by 2 washes (100 μl each) with ice cold binding buffer. Radioactivity was determined by liquid scintillation counting in a TOPCOUNTER (Packard) following over night incubation in Microscint 20. Stable HEK293 cells were seeded at a density of 30.000 cells/well 18-24 h prior to the binding assay which was performed essentially as described for COS7 cells above. Determinations were made in duplicates.
Curve analysis was performed with the GraphPadPrism software 3.0 (Graphpad Prism Inc., San Diego, USA) and IC50 values were calculated as a measure of the antagonistic potencies.

O=C(Cc1ccccc1)Nc1cccc(C(=O)Nc2ccccc2C(=O)O)c1 [B37]
IC50: 500 to 5000 nM

COc1cccc(OC)c1C(=O)Nc1cccc(C(=O)Nc2ccccc2C(=O)O)c1 [B38]
IC50: 500 to 5000 nM

COc1ccc(OCC(=O)Nc2cccc(C(=O)Nc3ccccc3C(=O)O)c2)cc1 [B39]
IC50: 500 to 5000 nM

CCCOc1ccc(C(=O)Nc2cccc(C(=O)Nc3ccccc3C(=O)O)c2)cc1 [B40]
IC50: < 500 nM

CCCOc1cccc(C(=O)Nc2cccc(C(=O)Nc3ccccc3C(=O)O)c2)c1 [B41]
IC50: < 500 nM

O=C(CSCc1ccccc1)Nc1cccc(C(=O)Nc2ccccc2C(=O)O)c1 [B42]
IC50: < 500 nM

O=C(Nc1cccc(C(=O)Nc2ccccc2C(=O)O)c1)c1ccc(I)cc1 [B43]
IC50: < 500 nM

O=C(Nc1ccc(O)cc1C(=O)O)c1cccc(NC(=O)c2ccco2)c1 [B44]
IC50: 500 to 5000 nM

O=C(Nc1ccc(C(=O)Nc2ccccc2C(=O)O)cc1)c1ccc(Br)cc1 [B45]
IC50: 500 to 5000 nM

Cc1ccc(NS(=O)(=O)c2cccc(C(=O)Nc3ccccc3C(=O)O)c2)cc1 [B46]
IC50: 500 to 5000 nM

O=C(Nc1ccccc1C(=O)O)c1cccc(S(=O)(=O)Nc2ccccc2)c1 [B47]
IC50: 500 to 5000 nM

COc1ccc(NS(=O)(=O)c2cccc(C(=O)Nc3ccccc3C(=O)O)c2)cc1 [B48]
IC50: 500 to 5000 nM

O=C(Nc1ccccc1C(=O)O)c1ccc(Br)c(S(=O)(=O)NCc2ccccc2)c1 [B50]
IC50: 500 to 5000 nM

COc1ccc(NS(=O)(=O)c2cc(C(=O)Nc3ccccc3C(=O)O)ccc2C)cc1 [B51]
IC50: 500 to 5000 nM

Cc1ccc(C(=O)Nc2ccccc2C(=O)O)cc1S(=O)(=O)Nc1ccc(Br)cc1 [B52]
IC50: < 500 nM

Cc1ccccc1NS(=O)(=O)c1cccc(C(=O)Nc2ccccc2C(=O)O)c1 [B53]
IC50: 500 to 5000 nM

O=C(Nc1ccccc1C(=O)O)c1ccc(Br)c(S(=O)(=O)Nc2ccc(Br)cc2)c1 [B54]
IC50: < 500 nM

O=C(Nc1ccccc1C(=O)O)c1cccc(S(=O)(=O)Nc2ccc(Br)cc2)c1 [B55]
IC50: < 500 nM

Cc1cccc(NS(=O)(=O)c2ccc(Cl)c(C(=O)Nc3ccccc3C(=O)O)c2)c1 [B57]
IC50: 500 to 5000 nM

O=C(Nc1ccccc1C(=O)O)c1cc(S(=O)(=O)Nc2ccc(Br)cc2)ccc1Cl [B58]
IC50: 500 to 5000 nM

Cc1ccc(C(=O)Nc2ccccc2C(=O)O)cc1S(=O)(=O)Nc1ccc(I)cc1 [B59]
IC50: < 500 nM

COc1ccccc1NS(=O)(=O)c1cccc(C(=O)Nc2ccccc2C(=O)O)c1 [B60]
IC50: 500 to 5000 nM

CCOc1ccc(NS(=O)(=O)c2cccc(C(=O)Nc3ccccc3C(=O)O)c2)cc1 [B61]
IC50: 500 to 5000 nM

Cc1ccc(C(=O)Nc2ccccc2C(=O)O)cc1S(=O)(=O)Nc1cccc(Cl)c1 [B62]
IC50: < 500 nM

Cc1ccc(C(=O)Nc2ccccc2C(=O)O)cc1S(=O)(=O)Nc1ccc(F)cc1 [B63]
IC50: 500 to 5000 nM

CCOc1ccc(NS(=O)(=O)c2cc(C(=O)Nc3ccccc3C(=O)O)ccc2C)cc1 [B64]
IC50: 500 to 5000 nM

CC(=O)c1ccc(NS(=O)(=O)c2cc(C(=O)Nc3ccccc3C(=O)O)ccc2C)cc1 [B65]
IC50: > 5000 nM

O=C(Nc1ccccc1C(=O)O)c1cccc(S(=O)(=O)NC2CCCCC2)c1 [B66]
IC50: 500 to 5000 nM

O=C(Nc1ccccc1C(=O)O)c1cc(S(=O)(=O)N2CCOCC2)ccc1Cl [B67]
IC50: > 5000 nM

O=C(Nc1ccccc1C(=O)O)c1cccc(S(=O)(=O)N2CCOCC2)c1 [B68]
IC50: > 5000 nM

CCN(CC)S(=O)(=O)c1cc(C(=O)Nc2ccccc2C(=O)O)ccc1Br [B69]
IC50: 500 to 5000 nM

O=C(Nc1ccccc1C(=O)O)c1cc(S(=O)(=O)N2CCCCC2)c(Cl)cc1Cl [B70]
IC50: < 500 nM

Cc1ccc(C(=O)Nc2ccccc2C(=O)O)cc1S(=O)(=O)N1CCOCC1 [B71]
IC50: 500 to 5000 nM

Cc1ccc(C(=O)Nc2ccccc2C(=O)O)cc1S(=O)(=O)N1CCCCC1 [B72]
IC50: < 500 nM

Cc1ccc(C(=O)Nc2ccccc2C(=O)O)cc1S(=O)(=O)NC1CCCCC1 [B73]
IC50: 500 to 5000 nM

O=C(Nc1ccccc1C(=O)O)c1cccc(S(=O)(=O)N2CCCC2)c1 [B74]
IC50: > 5000 nM

Cc1ccc(C(=O)Nc2ccccc2C(=O)O)cc1S(=O)(=O)N1CCCCCC1 [B75]
IC50: 500 to 5000 nM

CCN(CC)S(=O)(=O)c1cc(C(=O)Nc2ccccc2C(=O)O)ccc1OC [B76]
IC50: 500 to 5000 nM

O=C(Nc1ccccc1C(=O)O)c1cc(S(=O)(=O)N2CCCCCC2)ccc1Cl [B77]
IC50: 500 to 5000 nM

Cc1ccc(S(=O)(=O)N2CCOCC2)cc1C(=O)Nc1ccccc1C(=O)O [B78]
IC50: > 5000 nM

O=C(Nc1ccccc1C(=O)O)c1cc(S(=O)(=O)N2CCCC2)ccc1Cl [B79]
IC50: 500 to 5000 nM

O=C(Nc1ccccc1C(=O)O)c1cc(S(=O)(=O)N2CCCC2)c(Cl)cc1Cl [B80]
IC50: 500 to 5000 nM

O=C(Nc1ccccc1C(=O)O)c1cccc(S(=O)(=O)N2CCCCC2)c1 [B81]
IC50: 500 to 5000 nM
